# Source: US20230147249A1, “METHODS OF APPLYING A FUMIGANT TO REDUCE FUSARIUM CONTAMINATION” (Taminco BV, priority 2020, published 2023)
# Assays:
# [1] = system: Foc TR4 chlamydospores; test: Efficacy of metam sodium on Foc TR4 chlamydospores in vitro (colony growth on PDA plates); type: cell-based, Fusarium oxysporum f. sp. cubense Tropical Race 4
# Protocol: Foc TR4 chlamydospores were extracted from infested soil and incubated with a dilution series of metam sodium for 5 min and 60 min at room temperature. Thereafter, the samples were diluted 10× to get reduction of the treatment and sufficient dilution of chlamydospores to avoid lack of resolution when grown on plate. Aliquots of 100 μl were plated on PDA plates in duplicate and incubated for 3 days at 25° C. Plates were photographed and scored.
# [2] = system: Cavendish banana plants; test: Field trial: growth and development of banana plants after metam sodium soil injection at 30 cm and 60 cm; type: in vivo, Cavendish banana (Musa)
# Protocol: The analyses described in this example were carried out in the Philippines in a field in which Musa trees (specifically bananas) were to be planted, in the spring (beginning in March). Final determinations were carried out in September of the same year.
# (§1) Metam Sodium Application. Metam sodium 510 SL (equivalent to 42% w/w) was applied to soil at the following doses: 0 liters per hectare (L/ha), 750 L/ha, 1500 L/ha, 2250 L/ha, 3000 L/ha.
# (§2) Prior to injection, soil was prepared using a rototiller to break the soil structure from 0 cm to 80 cm deep, allowing for the smooth and even injection application by an injection machine. The soil was then leveled and made uniform, and the metam sodium was applied at two depths: 30 cm and 60 cm, using injection methods. The temperature was at a minimum of 10 QC and soil humidity was between 50 and 60% holding capacity, allowing the applied product to transform from metam sodium (liquid) to MITC (gas).
# (§3) The application was made using an injection machine wherein the machine lowered shanks and began moving forward such that the shanks lowered to a depth of 60 cm and injectors applied the metam sodium into the soil. When the injection at 60 cm was complete, the process was repeated for the entire field at 30 cm. The treated soil in the field was then sealed using a packer roller (which was part of the injection machinery, located at the back end of the machine), after each application.
# Plant Selection and Transplantation. Cavendish banana plants were used for this investigation. In order to avoid plants already contaminated by other soil, all plants were produced in vitro using art-recognized methods. Plants were transplanted into the field 14 days after the final soil reading was taken (21 days after treatment).
# Data Gathering. Data were gathered at monthly intervals beginning three months after banana plants were transplanted. A total of three data collection sessions were conducted. Data including the number of leaves, plant height, and girth size were collected.
# [3] = system: F. oxysporum f. sp. cubense; test: Panama disease analysis of soil samples after metam sodium soil injection; type: in vivo, Fusarium oxysporum f. sp. cubense Tropical Race 4; settings: any of the treated groups (750-3000 L/ha); any day post application
# Protocol: as §1, §2, §3
# Soil Analysis. Soil samples were obtained at 20, 40, and 60 cm before application and every 24 hours beginning 48 hours after application, for seven days.
# Plant Pathology Analysis. […]
# [4] = 750 L/ha, six months after treatment
# [5] = 1500 L/ha, six months after treatment
# [6] = 2250 L/ha, six months after treatment
# [7] = 3000 L/ha, six months after treatment
smiles,measurement,setting,value
"CNC(=S)[S-].[Na+] [metam sodium, sodium N-methyldithiocarbamate]",effect of prolonged incubation on number of surviving chlamydospores (growing colonies),"[1]; 100× dilution, 60 min versus 5 min",more effective in reducing the number of surviving chlamydospores
same,efficacy on Foc TR4 colony growth,"[1]; dilution of 10×, incubation time 5 minutes",effective
same,efficacy on Foc TR4 colony growth,"[1]; dilution of 100×, 5 and 60 minutes",less effective
same,reduction in viability of Foc TR4 chlamydospores (colony growth),"[1]; first test, dilutions from 1000 up to 10×10^6-fold, 60 min",No significant reduction in viability
same,efficacy against Foc TR4 chlamydospores,"[1]; in vitro conditions, dependent on high concentrations",effective against Foc TR4 chlamydospores
same,efficacy on surviving chlamydospores,"[1]; second test, 10× and 100× dilutions",(partially) effective
same,number of chlamydospores that survived,"[1]; second test, dilutions of 1000× and more",did not affect the number of chlamydospores that survived
same,effect on average girth size of banana plant,[2]; 750 L/ha,~1 cm
same,increase in average height of banana plant,[2]; 750 L/ha,~5 cm
same,effect on plants reaching bagging stage,[2]; [4],did not have a meaningful effect
same,percent of plants at either shooting or bagging stage,[2]; [4],11%
same,percent of plants at shooting stage,[2]; [4],9%
same,increase in average girth size of banana plant,[2]; 1500-3000 L/ha,4-6 cm
same,increase in average height of banana plant,[2]; 1500-3000 L/ha,20-23 cm
same,percent of plants at either shooting or bagging stage,[2]; [5],28%
same,percent of plants at shooting stage,[2]; [5],10%
same,percent of plants at bagging stage,"[2]; 1500 to 3000 L/ha, six months after treatment",11-19%
same,percent of plants at either shooting or bagging stage,[2]; [6],27%
same,percent of plants at shooting stage,[2]; [6],17%
same,percent of plants at either shooting or bagging stage,[2]; [7],35%
same,percent of plants at shooting stage,[2]; [7],22%
same,increase of average number of leaves per banana plant,"[2]; regardless of dose applied (750-3000 L/ha), versus 0 L/ha",roughly 1.5 fold
same,Foc TR4 detection in soil,[3],No Foc TR4 was detected
